Test results published in the kinase profiling compilation of Christmann-Franck et al. (2016).

Columns and labels:
MAP4K1 (human) = MAP4K1 (human) (UniProt Q92918); assay: KINOMEscan competition binding; details: compound 10.0 µM
TLK1 (human) = TLK1 (human) (UniProt Q9UKI8); assay: KINOMEscan competition binding; details: compound 10.0 µM
CDK7 (human) = CDK7 (human) (UniProt P50613); assay: KINOMEscan competition binding; details: compound 10.0 µM
PDPK1 (human) = PDPK1 (human) (UniProt O15530); assay: KINOMEscan competition binding; details: compound 10.0 µM
MAPK14 (human) = MAPK14 (human) (UniProt Q16539); assay: KINOMEscan competition binding; details: compound 10.0 µM
STK17A (human) = STK17A (human) (UniProt Q9UEE5); assay: KINOMEscan competition binding; details: compound 10.0 µM
AAK1 (human) = AAK1 (human) (UniProt Q2M2I8); assay: KINOMEscan competition binding; details: compound 10.0 µM
IGF1R (human) = IGF1R (human) (UniProt P08069); assay: KINOMEscan competition binding; details: compound 10.0 µM
MAP3K12 (human) = MAP3K12 (human) (UniProt Q12852)
MAP3K12 (human), sequence (Q12852 whole entry, looked up): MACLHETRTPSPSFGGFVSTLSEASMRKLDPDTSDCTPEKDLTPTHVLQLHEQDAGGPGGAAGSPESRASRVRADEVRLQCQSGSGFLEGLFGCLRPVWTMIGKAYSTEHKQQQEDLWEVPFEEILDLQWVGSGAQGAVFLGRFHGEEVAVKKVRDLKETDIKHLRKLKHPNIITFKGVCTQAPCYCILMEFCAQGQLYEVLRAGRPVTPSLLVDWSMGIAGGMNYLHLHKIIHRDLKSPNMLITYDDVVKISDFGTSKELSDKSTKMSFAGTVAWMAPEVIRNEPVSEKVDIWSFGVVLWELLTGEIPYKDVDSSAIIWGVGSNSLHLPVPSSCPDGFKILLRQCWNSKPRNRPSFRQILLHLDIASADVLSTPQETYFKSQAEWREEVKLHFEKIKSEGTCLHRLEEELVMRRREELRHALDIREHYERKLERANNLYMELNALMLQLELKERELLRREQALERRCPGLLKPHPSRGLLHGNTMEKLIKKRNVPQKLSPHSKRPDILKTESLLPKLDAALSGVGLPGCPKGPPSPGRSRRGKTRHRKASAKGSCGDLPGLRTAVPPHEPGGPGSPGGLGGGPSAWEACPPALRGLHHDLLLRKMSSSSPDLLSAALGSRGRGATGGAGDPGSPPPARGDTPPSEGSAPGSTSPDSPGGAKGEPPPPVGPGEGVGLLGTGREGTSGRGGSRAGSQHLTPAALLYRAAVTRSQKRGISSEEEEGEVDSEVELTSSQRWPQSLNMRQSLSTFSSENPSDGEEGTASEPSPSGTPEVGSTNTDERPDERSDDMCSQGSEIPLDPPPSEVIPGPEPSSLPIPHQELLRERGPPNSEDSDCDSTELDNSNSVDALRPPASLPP

IGF1R (human), sequence (P08069 whole entry, looked up): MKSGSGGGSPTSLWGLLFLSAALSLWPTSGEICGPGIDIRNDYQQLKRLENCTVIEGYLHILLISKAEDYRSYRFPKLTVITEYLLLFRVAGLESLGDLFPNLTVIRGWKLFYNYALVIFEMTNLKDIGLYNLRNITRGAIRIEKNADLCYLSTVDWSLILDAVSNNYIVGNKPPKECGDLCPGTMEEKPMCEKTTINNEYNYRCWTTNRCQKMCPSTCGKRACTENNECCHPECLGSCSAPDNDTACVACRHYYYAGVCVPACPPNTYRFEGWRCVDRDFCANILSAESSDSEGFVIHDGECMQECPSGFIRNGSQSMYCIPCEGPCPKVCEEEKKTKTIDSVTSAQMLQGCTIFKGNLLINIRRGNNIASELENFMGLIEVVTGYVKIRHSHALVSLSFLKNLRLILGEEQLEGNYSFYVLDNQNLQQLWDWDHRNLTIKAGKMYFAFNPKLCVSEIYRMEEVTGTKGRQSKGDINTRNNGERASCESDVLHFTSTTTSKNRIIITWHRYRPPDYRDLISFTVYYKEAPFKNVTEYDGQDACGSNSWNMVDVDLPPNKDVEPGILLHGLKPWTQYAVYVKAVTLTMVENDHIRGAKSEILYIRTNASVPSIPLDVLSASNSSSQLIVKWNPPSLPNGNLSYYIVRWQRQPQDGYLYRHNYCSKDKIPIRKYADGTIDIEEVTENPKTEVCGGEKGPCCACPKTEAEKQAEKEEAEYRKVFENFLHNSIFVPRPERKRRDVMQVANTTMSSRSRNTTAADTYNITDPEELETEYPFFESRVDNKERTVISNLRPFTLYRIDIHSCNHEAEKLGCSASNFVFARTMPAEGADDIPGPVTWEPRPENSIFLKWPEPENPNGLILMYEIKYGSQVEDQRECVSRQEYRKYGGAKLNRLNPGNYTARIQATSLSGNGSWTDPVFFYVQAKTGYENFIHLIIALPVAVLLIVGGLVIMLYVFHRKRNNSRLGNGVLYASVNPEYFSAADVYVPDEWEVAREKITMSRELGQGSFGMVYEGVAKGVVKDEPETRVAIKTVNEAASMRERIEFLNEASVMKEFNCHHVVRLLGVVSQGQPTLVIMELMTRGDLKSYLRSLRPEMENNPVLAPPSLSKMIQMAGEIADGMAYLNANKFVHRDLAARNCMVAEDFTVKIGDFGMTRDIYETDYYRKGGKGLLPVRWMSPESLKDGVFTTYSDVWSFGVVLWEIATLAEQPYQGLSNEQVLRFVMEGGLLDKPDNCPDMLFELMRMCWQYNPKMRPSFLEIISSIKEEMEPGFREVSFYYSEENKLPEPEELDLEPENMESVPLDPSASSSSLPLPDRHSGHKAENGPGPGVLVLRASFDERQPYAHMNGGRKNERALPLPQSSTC
AAK1 (human), sequence (Q2M2I8 whole entry, looked up): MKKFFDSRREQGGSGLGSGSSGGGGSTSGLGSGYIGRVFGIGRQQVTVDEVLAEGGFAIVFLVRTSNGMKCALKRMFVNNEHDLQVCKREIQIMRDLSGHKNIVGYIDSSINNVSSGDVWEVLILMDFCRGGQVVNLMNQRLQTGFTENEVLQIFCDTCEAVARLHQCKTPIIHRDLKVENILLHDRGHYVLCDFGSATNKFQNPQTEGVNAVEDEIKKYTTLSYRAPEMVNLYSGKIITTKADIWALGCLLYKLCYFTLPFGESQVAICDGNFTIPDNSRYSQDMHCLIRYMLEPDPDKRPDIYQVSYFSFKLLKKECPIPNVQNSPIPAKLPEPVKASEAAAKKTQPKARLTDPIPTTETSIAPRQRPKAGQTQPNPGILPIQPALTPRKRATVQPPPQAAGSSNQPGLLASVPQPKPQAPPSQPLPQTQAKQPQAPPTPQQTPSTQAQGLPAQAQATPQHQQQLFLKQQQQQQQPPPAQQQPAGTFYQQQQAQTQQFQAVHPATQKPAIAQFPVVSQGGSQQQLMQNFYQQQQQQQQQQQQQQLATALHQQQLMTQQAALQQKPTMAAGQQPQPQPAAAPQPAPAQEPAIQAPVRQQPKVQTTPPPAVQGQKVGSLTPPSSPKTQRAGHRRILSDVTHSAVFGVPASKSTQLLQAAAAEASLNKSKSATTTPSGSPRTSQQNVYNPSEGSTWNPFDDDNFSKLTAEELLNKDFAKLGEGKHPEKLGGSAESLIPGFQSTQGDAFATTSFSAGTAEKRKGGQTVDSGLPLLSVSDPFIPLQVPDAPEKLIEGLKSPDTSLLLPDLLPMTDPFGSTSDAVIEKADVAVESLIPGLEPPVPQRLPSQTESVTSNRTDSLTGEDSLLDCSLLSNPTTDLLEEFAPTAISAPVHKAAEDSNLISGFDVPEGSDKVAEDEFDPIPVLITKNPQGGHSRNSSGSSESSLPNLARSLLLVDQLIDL
PDPK1 (human), sequence (O15530 whole entry, looked up): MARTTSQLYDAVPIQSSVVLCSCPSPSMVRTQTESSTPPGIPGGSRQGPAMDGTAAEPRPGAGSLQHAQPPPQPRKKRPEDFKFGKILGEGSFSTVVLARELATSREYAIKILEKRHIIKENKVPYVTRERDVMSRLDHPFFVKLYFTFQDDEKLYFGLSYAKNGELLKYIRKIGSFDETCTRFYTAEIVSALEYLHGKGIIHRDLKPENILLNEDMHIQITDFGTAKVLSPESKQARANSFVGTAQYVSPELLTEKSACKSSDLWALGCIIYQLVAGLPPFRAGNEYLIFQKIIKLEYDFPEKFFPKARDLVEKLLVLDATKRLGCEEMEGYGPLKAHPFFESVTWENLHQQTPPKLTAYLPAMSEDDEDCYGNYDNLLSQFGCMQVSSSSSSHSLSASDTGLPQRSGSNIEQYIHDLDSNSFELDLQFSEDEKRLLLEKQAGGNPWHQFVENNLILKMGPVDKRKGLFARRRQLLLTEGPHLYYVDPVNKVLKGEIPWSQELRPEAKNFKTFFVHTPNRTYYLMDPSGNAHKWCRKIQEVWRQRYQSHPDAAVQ
MAPK14 (human), sequence (Q16539 whole entry, looked up): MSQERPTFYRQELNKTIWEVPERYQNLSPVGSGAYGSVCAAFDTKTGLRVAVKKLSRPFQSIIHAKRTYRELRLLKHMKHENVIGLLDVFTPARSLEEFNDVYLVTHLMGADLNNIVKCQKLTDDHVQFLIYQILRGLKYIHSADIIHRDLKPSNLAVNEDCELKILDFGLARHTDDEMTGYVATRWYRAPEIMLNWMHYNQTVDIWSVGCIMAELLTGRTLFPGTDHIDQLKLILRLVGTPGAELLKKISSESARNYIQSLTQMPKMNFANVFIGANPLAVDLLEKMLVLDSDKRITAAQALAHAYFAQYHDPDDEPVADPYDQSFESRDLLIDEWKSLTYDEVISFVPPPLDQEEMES
CDK7 (human), sequence (P50613 whole entry, looked up): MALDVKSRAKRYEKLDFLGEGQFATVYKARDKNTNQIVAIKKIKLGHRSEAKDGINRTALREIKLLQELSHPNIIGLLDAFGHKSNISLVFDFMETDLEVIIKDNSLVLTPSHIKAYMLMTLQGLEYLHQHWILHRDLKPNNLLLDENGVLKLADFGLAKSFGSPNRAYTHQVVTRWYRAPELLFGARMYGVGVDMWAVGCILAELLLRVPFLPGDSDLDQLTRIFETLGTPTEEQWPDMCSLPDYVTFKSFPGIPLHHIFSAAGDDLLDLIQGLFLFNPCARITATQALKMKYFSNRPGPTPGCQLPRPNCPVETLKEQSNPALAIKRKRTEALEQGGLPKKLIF
STK17A (human), sequence (Q9UEE5 whole entry, looked up): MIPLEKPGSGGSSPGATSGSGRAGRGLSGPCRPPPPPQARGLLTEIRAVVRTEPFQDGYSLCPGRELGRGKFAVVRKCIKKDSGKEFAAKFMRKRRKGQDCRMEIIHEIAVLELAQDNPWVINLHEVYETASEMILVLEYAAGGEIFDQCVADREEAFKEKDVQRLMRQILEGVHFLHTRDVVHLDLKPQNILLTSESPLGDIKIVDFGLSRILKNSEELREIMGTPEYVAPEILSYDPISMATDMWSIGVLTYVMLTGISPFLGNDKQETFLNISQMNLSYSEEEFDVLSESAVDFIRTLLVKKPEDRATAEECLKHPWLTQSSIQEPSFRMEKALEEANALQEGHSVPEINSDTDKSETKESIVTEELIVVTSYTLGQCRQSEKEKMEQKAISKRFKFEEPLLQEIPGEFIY

kinase still bound, per cent of control (MAP4K1 (human)): 61%
kinase still bound, per cent of control (TLK1 (human)): 100%
kinase still bound, per cent of control (CDK7 (human)): 11%
kinase still bound, per cent of control (PDPK1 (human)): 89%
kinase still bound, per cent of control (MAPK14 (human)): 0%
kinase still bound, per cent of control (STK17A (human)): 62%
kinase still bound, per cent of control (AAK1 (human)): 85%
kinase still bound, per cent of control (IGF1R (human)): 100%
IC50 (MAP3K12 (human)): > 10 µM
SMILES: O=C(Nc1ccc(Oc2ncnc3[nH]ncc23)cc1)Nc1ccc(Cl)c(C(F)(F)F)c1
